Here are results for eight compounds from patent US8937048B2, “Anti-angiogenic compounds” (Covx Technologies Ireland, Limited, priority 2008, dated 2015).

Where a SMILES comes first, the peptide text is derived from it. Bridges are numbered along the chain shown (N, C = ends). [ ]: non-standard residue; d: D form. Nle = CCCC[C@H](N)C(=O)O

This experiment addresses T1, recombinant human VEGF165 (Homo sapiens, UniProt P15692).
T1 sequence (P15692 27-191 isoform P15692-4): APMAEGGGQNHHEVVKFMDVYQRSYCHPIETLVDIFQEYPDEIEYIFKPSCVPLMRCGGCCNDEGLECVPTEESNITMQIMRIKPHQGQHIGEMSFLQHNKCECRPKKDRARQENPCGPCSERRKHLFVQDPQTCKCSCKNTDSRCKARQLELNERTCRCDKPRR
Kind of experiment: VEGF peptide binding assay (competition ELISA, VEGF165 binding to coated VEGFR2/Fc). How it is done: High-binding half-well 96-well plates (Costar #3690) were coated with recombinant human VEGFR2/Fc (50 ng/well) in 50 μl PBS, and incubated at 4° C. overnight. After washing the plates three times with 1× washing buffer (KPL Cat#50-65-00) and blocking with Superblock (Scytek #AAA500) at room temperature (RT) for 1 hour, VEGF-peptides of the invention were serially diluted (concentrations: 0.128-10,000 nM) in the presence of 25 ng/ml of recombinant human VEGF165 in […] Superblock, and were then added to the 96-well plates and incubated at RT for 1 hour. Peptides of the invention tested in this fashion were all capped at the amino terminus with a C(O)CH3 group and at the carboxyl terminus with a NH2 group. The plates were then washed three times with washing buffer, and a diluted (1:500) biotinylated anti-human VEGF antibody (R&D systems, Cat# BAF293) was added and incubated at RT for 2 hours. After washing the plates, streptavidin HRP conjugate (1:200 in Superblock) (R&D systems, Cat# DY998) was added to detect the bound anti-VEGF antibody, followed by addition of tetramethylbenzidine (TMB) substrate (Pierce, Cat#34021) for color development. The reaction was stopped with 2 M H2SO4. OD450 was measured using SpectraMax (Molecular Device) with a correction wavelength of 540 nm. The data were analyzed using Prism software. OD450 values were plotted as a function of the concentrations of the VEGF peptides. IC50 values, indicative of the potency of the VEGF peptides to inhibit VEGF-VEGFR2 interaction, were obtained using a sigmoid dose-response curve fit in Prism.
Background: In an ELISA, binding on a coated surface is turned into a signal by an enzyme label.
A word on the IC50: it is the concentration at which inhibition is half-maximal. Consider `CC[C@H](C)[C@@H]1NC(=O)[C@H](CC(=O)O)NC(=O)[C@@H](NC(=O)[C@H](CC(N)=O)NC(=O)[C@@H]2CCCN2C(=O)[C@H](CCC(=O)O)NC(=O)[C@@H](NC(C)=O)C(C)C)CSSC[C@@H](C(=O)N[C@@H](Cc2ccccc2)C(=O)N[C@@H](CCC(=O)O)C(=O)N[C@@H](CCCNC(=N)N)C(=O)N[C@@H](CC(C)C)C(=O)N[C@@H](Cc2ccc(O)cc2)C(=O)NCC(=O)NCC(N)=O)NC(=O)[C@H](CCC(=O)O)NC(=O)[C@H](Cc2c[nH]c3ccccc23)NC(=O)[C@H](C(C)C)NC(=O)[C@H](Cc2c[nH]c3ccccc23)NC(=O)[C@H](CCSC)NC(=O)[C@H](C(C)C)NC(=O)[C@H](Cc2c[nH]cn2)NC1=O` [Compound 52, VEPNCDIHVMWVWECFERLYGG] (Ac-VEPNCDIHVMWVWECFERLYGG-NH2; disulfide 5-15 (inferred)), for which the IC50 amounted to 32.3 nM.

For `CC[C@H](C)[C@@H]1NC(=O)[C@H](CC(=O)O)NC(=O)[C@@H](NC(=O)[C@H](CC(N)=O)NC(=O)[C@@H]2CCCN2C(=O)[C@H](CCC(=O)O)NC(=O)[C@@H](NC(C)=O)C(C)C)CSSC[C@@H](C(=O)N[C@@H](Cc2ccccc2)C(=O)N[C@@H](CCC(=O)O)C(=O)N[C@@H](CCCNC(=N)N)C(=O)N[C@@H](CC(C)C)C(=O)N[C@@H](Cc2ccccc2)C(=O)N[C@@H](CCCCN)C(=O)N[C@@H](CCC(=O)O)C(=O)N[C@@H](C)C(N)=O)NC(=O)[C@H](CCC(=O)O)NC(=O)[C@H](Cc2c[nH]c3ccccc23)NC(=O)[C@H](C(C)C)NC(=O)[C@H](Cc2c[nH]c3ccccc23)NC(=O)[C@H](CCSC)NC(=O)[C@H](C(C)C)NC(=O)[C@H](Cc2c[nH]cn2)NC1=O` [Compound 53, VEPNCDIHVMWVWECFERLFKEA] (Ac-VEPNCDIHVMWVWECFERLFKEA-NH2; disulfide 5-15 (inferred)), the 50% inhibitory concentration (IC50) was found to be 31.4 nM.

Regarding `CCCC[C@H](NC(=O)[C@H](CC(C)C)NC(=O)[C@H](CCCNC(=N)N)NC(=O)[C@H](CCC(=O)O)NC(=O)[C@H](Cc1ccccc1)NC(=O)[C@@H]1CSSC[C@H](NC(=O)[C@H](CC(N)=O)NC(=O)[C@@H]2CCCN2C(=O)[C@H](CCC(=O)O)NC(=O)[C@@H](NC(C)=O)C(C)C)C(=O)N[C@@H](CC(=O)O)C(=O)N[C@@H]([C@@H](C)CC)C(=O)N[C@@H](Cc2c[nH]cn2)C(=O)N[C@@H](C(C)C)C(=O)N[C@@H](CCSC)C(=O)N[C@@H](Cc2c[nH]c3ccccc23)C(=O)N[C@@H](C(C)C)C(=O)N[C@@H](Cc2c[nH]c3ccccc23)C(=O)N[C@@H](CCC(=O)O)C(=O)N1)C(=O)N[C@@H](CCCCN)C(N)=O` [Compound 54, V-E-P-N-C-D-I-H-V-M-W-V-W-E-C-F-E-R-L-(Nle)-K] (Ac-VEPNCDIHVMWVWECFERL[Nle]K-NH2; disulfide 5-15 (inferred)), the half-maximal inhibitory concentration (IC50) came to 28.6 nM.

With `CC[C@H](C)[C@@H]1NC(=O)[C@H](CC(=O)O)NC(=O)[C@@H](NC(=O)[C@H](CC(N)=O)NC(=O)[C@@H]2CCCN2C(=O)[C@H](CCC(=O)O)NC(=O)[C@@H](NC(C)=O)C(C)C)CSSC[C@@H](C(=O)N[C@@H](Cc2ccccc2)C(=O)N[C@@H](CCC(=O)O)C(=O)N[C@@H](CCCNC(=N)N)C(=O)N[C@@H](CC(C)C)C(=O)N[C@@H](Cc2ccc(O)cc2)C(=O)NCC(=O)NCC(=O)N[C@@H](Cc2ccccc2)C(N)=O)NC(=O)[C@H](CCC(=O)O)NC(=O)[C@H](Cc2c[nH]c3ccccc23)NC(=O)[C@H](C(C)C)NC(=O)[C@H](Cc2c[nH]c3ccccc23)NC(=O)[C@H](CCSC)NC(=O)[C@H](C(C)C)NC(=O)[C@H](Cc2c[nH]cn2)NC1=O` [Compound 56, VEPNCDIHVMWVWECFERLYGGF] (Ac-VEPNCDIHVMWVWECFERLYGGF-NH2; disulfide 5-15 (inferred)), the IC50 amounted to 26.2 nM.

For the compound `CC[C@H](C)[C@H](NC(=O)[C@H](CC(C)C)NC(=O)[C@H](CCCNC(=N)N)NC(=O)[C@H](CCC(=O)O)NC(=O)[C@H](Cc1ccccc1)NC(=O)[C@@H]1CSSC[C@H](NC(=O)[C@H](CC(N)=O)NC(=O)[C@@H]2CCCN2C(=O)[C@H](CCC(=O)O)NC(=O)[C@@H](NC(C)=O)C(C)C)C(=O)N[C@@H](CC(=O)O)C(=O)N[C@@H]([C@@H](C)CC)C(=O)N[C@@H](Cc2c[nH]cn2)C(=O)N[C@@H](C(C)C)C(=O)N[C@@H](CCSC)C(=O)N[C@@H](Cc2c[nH]c3ccccc23)C(=O)N[C@@H](C(C)C)C(=O)N[C@@H](Cc2c[nH]c3ccccc23)C(=O)N[C@@H](CCC(=O)O)C(=O)N1)C(=O)N[C@@H](CCCCN)C(N)=O` [Compound 57, VEPNCDIHVMWVWECFERLIK] (Ac-VEPNCDIHVMWVWECFERLIK-NH2; disulfide 5-15 (inferred)), the IC50 is 25.4 nM.

With `CC[C@H](C)[C@@H]1NC(=O)[C@H](CC(=O)O)NC(=O)[C@@H](NC(=O)[C@H](CC(N)=O)NC(=O)[C@@H]2CCCN2C(=O)[C@H](CCC(=O)O)NC(=O)[C@@H](NC(C)=O)C(C)C)CSSC[C@@H](C(=O)N[C@@H](Cc2ccccc2)C(=O)N[C@@H](CCC(=O)O)C(=O)N[C@@H](CCCNC(=N)N)C(=O)N[C@@H](CC(C)C)C(=O)N[C@@H](Cc2ccc(O)cc2)C(=O)N[C@@H](CCCCN)C(N)=O)NC(=O)[C@H](CCC(=O)O)NC(=O)[C@H](Cc2c[nH]c3ccccc23)NC(=O)[C@H](C(C)C)NC(=O)[C@H](Cc2c[nH]c3ccccc23)NC(=O)[C@H](CCSC)NC(=O)[C@H](C(C)C)NC(=O)[C@H](Cc2c[nH]cn2)NC1=O` [Compound 58, VEPNCDIHVMWVWECFERLYK] (Ac-VEPNCDIHVMWVWECFERLYK-NH2; disulfide 5-15 (inferred)), the IC50 came to 25.1 nM.

As to `CC[C@H](C)[C@@H]1NC(=O)[C@H](CC(=O)O)NC(=O)[C@@H](NC(=O)[C@H](CC(N)=O)NC(=O)[C@@H]2CCCN2C(=O)[C@H](CCC(=O)O)NC(=O)[C@@H](NC(C)=O)C(C)C)CSSC[C@@H](C(=O)N[C@@H](Cc2ccccc2)C(=O)N[C@@H](CCC(=O)O)C(=O)N[C@@H](CCCNC(=N)N)C(=O)N[C@@H](CC(C)C)C(=O)N[C@@H](CCSC)C(=O)NCC(=O)N[C@@H](CC(C)C)C(=O)N[C@H](C(N)=O)[C@@H](C)O)NC(=O)[C@H](CCC(=O)O)NC(=O)[C@H](Cc2c[nH]c3ccccc23)NC(=O)[C@H](C(C)C)NC(=O)[C@H](Cc2c[nH]c3ccccc23)NC(=O)[C@H](CCSC)NC(=O)[C@H](C(C)C)NC(=O)[C@H](Cc2c[nH]cn2)NC1=O` [Compound 59, VEPNCDIHVMWVWECFERLMGLT] (Ac-VEPNCDIHVMWVWECFERLMGLT-NH2; disulfide 5-15 (inferred)), the IC50 is 25 nM.

For `CC[C@H](C)[C@@H]1NC(=O)[C@H](CC(=O)O)NC(=O)[C@@H](NC(=O)[C@H](CC(N)=O)NC(=O)[C@@H]2CCCN2C(=O)[C@H](CCC(=O)O)NC(=O)[C@@H](NC(C)=O)C(C)C)CSSC[C@@H](C(=O)N[C@@H](Cc2ccccc2)C(=O)N[C@@H](CCC(=O)O)C(=O)N[C@@H](CCCNC(=N)N)C(=O)N[C@@H](CC(C)C)C(=O)N[C@H](CC(C)C)C(=O)N[C@@H](CCCCNC(C)=O)C(N)=O)NC(=O)[C@H](CCC(=O)O)NC(=O)[C@H](Cc2c[nH]c3ccccc23)NC(=O)[C@H](C(C)C)NC(=O)[C@H](Cc2c[nH]c3ccccc23)NC(=O)[C@H](CCSC)NC(=O)[C@H](C(C)C)NC(=O)[C@H](Cc2c[nH]cn2)NC1=O` [Compound 60, V-E-P-N-C-D-I-H-V-M-W-V-W-E-C-F-E-R-L-(D-Leu)-(Kac)] (Ac-VEPNCDIHVMWVWECFERL[dL]K(Ac)-NH2; disulfide 5-15 (inferred)), the IC50 came out at 25 nM.
